We go through 18 molecules from patent publication EP1763509B1, “ALPHA-HELICAL MIMETICS” (THE WALTER AND ELIZA HALL INSTITUTE OF MEDICAL RESEARCH, priority 2004, dated 2006).

The target of one assay is Mcl-1 (Homo sapiens, UniProt Q07820). Put plainly: Alphascreen GST competition binding assay, benzoylurea compounds vs Biotinylated Bak BH3 peptide on GST tagged Mcl-1 protein. The following applies: GST tagged Mcl-1 protein 0.4 nM, Biotinylated Bak BH3 peptide 4.0 nM, 4 hours at room temperature; n.b. = not binding in the assay conditions. (In general: Bead proximity is the source of the signal in Alpha formats.)
Sequence of Mcl-1 (Q07820 whole entry, species assumed): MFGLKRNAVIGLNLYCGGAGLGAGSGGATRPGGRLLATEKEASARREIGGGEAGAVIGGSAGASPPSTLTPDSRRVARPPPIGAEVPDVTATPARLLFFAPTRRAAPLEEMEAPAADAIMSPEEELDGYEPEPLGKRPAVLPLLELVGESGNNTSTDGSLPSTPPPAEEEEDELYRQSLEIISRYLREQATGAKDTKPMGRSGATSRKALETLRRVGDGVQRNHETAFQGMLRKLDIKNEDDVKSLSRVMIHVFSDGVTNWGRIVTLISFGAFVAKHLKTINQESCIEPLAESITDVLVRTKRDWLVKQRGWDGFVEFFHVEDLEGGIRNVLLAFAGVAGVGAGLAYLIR

The next assay concerns the target T1, Bcl-xLΔ25 (Homo sapiens, UniProt Q07817).
T1 construct: GST tagged Bcl-xL ΔC25 protein
Put plainly: Alphascreen GST competition binding assay, benzoylurea compounds vs Biotinylated Bim BH3-26 peptide on GST tagged Bcl-xL ΔC25 protein. The following applies: GST tagged Bcl-xL ΔC25 protein 0.6 nM, Biotinylated Bim BH3-26 peptide 5.0 nM, 4 hours at room temperature; n.b. = not binding in the assay conditions.

The next assay deals with T2, Bcl-wΔ29 (Homo sapiens, UniProt Q92843).
T2 construct: GST tagged Bclw ΔC29 protein
T2 sequence (Q92843 1-164 limits assumed): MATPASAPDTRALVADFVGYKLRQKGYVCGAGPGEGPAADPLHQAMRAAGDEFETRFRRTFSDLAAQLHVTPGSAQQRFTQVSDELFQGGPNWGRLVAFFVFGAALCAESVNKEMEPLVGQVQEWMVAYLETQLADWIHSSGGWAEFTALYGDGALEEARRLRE
As to the kind of experiment: Alphascreen GST competition binding assay, benzoylurea compounds vs Biotinylated Bim BH3-26 peptide on GST tagged Bclw ΔC29 protein. As to conditions: GST tagged Bclw ΔC29 protein 0.05 nM, Biotinylated Bim BH3-26 peptide 3.0 nM, 4 hours at room temperature; values marked a tested in a separate experiment; n.b. = not binding in the assay conditions.

Each structure is given as a SMILES string.

T1 sequence (Q07817 1-208 limits assumed, stated change not applied): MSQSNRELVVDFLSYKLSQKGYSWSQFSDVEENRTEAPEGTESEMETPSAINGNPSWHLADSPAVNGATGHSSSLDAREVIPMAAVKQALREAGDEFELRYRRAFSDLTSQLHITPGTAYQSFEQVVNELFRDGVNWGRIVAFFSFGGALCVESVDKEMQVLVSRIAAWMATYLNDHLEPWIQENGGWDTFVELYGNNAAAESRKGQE

Broadly, the IC50 is the concentration at which inhibition is half-maximal. Low values mean higher potency, high ones lower potency. Regarding `CCCN(C(=O)N[C@@H](CSCc1ccccc1-c1ccccc1)C(=O)O)C(=O)c1cccc(C#Cc2ccccc2)c1` [(96)], the figures for the IC50 on Mcl-1, at Bcl-xLΔ25 and on Bcl-wΔ29 were 133 µM, 153 µM and 52 µM, respectively.
Turning to `CCCSC[C@H](NC(=O)N(CCC)C(=O)c1cccc(-c2ccccc2Cl)c1)C(=O)O` [(97)], the IC50 on Mcl-1 is 264 µM; on Bcl-xLΔ25, 199 µM; on Bcl-wΔ29 it was 68 µM.
On the same counts, the results for `CCCN(C(=O)N[C@@H](CSCC(C)C)C(=O)O)C(=O)c1cccc(-c2ccccc2Cl)c1` [(98)] are 107 µM, 93 µM and 32 µM.
Taken in the same sequence, the figures for `CCCN(C(=O)N[C@@H](CSC(C)C)C(=O)O)C(=O)c1cccc(-c2ccccc2Cl)c1` [(99)] were 168 µM, 163 µM and 60 µM.
As for `CCCN(C(=O)N[C@@H](CSc1ccccc1)C(=O)O)C(=O)c1cccc(-c2ccccc2Cl)c1` [(100)], the IC50 at Mcl-1 was found to be 52 µM; on Bcl-xLΔ25, 48 µM; at Bcl-wΔ29, 18 µM.
On the same counts, the results for `CCCN(C(=O)N[C@@H](CSCCc1ccccc1)C(=O)O)C(=O)c1cccc(-c2ccccc2Cl)c1` [(101)] are 55 µM, 42 µM and 19 µM.
On the same counts, the results for `CCCN(C(=O)N[C@@H](CSCCCc1ccccc1)C(=O)O)C(=O)c1cccc(-c2ccccc2Cl)c1` [(102)] are 51 µM, 50 µM and 18 µM.
As to `CCCN(C(=O)N[C@@H](CSCc1ccccc1-c1ccccc1)C(=O)O)C(=O)c1cccc(-c2ccccc2Cl)c1` [(103)], the IC50 at Mcl-1 is 36 µM; on Bcl-xLΔ25, 53 µM; on Bcl-wΔ29, 18 µM.
On the same counts, the results for `CCCN(C(=O)Cc1cccc(-c2ccccc2)c1)C(=O)N[C@@H](CSCc1ccccc1)C(=O)O` [(104)] are 267 µM, 187 µM and 205 µM.
Turning to `CCCN(C(=O)Cc1ccccc1)C(=O)N[C@@H](CSCc1ccccc1)C(=O)O` [(105)], the IC50 on Mcl-1 was 164 µM; on Bcl-xLΔ25 it was 183 µM; on Bcl-wΔ29 it was 71 µM.
As to `CC(C)Cc1cccc(C(=O)N(Cc2ccccc2)C(=O)N[C@@H](CSCc2ccccc2)C(=O)O)c1` [(107)], the values for the IC50 on Mcl-1, on Bcl-xLΔ25 and at Bcl-wΔ29 were 73 µM, 70 µM and 37 µM, respectively.
As for `CC(C)Cc1cccc(C(=O)N(CCc2ccccc2)C(=O)N[C@@H](CSCc2ccccc2)C(=O)O)c1` [(108)], the IC50 at Mcl-1 worked out at 72 µM; at Bcl-xLΔ25, 87 µM; at Bcl-wΔ29 it was 49 µM.
On the same counts, the results for `CC(C)CCc1cccc(C(=O)N(Cc2ccccc2)C(=O)N[C@@H](CSCc2ccccc2)C(=O)O)c1` [(109)] are 65 µM, 81 µM and 29 µM.
On to `CC(C)CCc1cccc(C(=O)N(CCc2ccccc2)C(=O)N[C@@H](CSCc2ccccc2)C(=O)O)c1` [(110)], for which the IC50 at Mcl-1 came to 64 µM; on Bcl-xLΔ25, 85 µM; on Bcl-wΔ29 it was 37 µM.
For `CCCCSC[C@H](NC(=O)N(Cc1ccccc1)C(=O)c1cccc(CC(C)C)c1)C(=O)O` [(111)], the IC50 turned out to be 86 µM on Mcl-1, 115 µM at Bcl-xLΔ25 and 36 µM on Bcl-wΔ29.
Taken in the same sequence, the figures for `CCCCSC[C@H](NC(=O)N(CCc1ccccc1)C(=O)c1cccc(CC(C)C)c1)C(=O)O` [(112)] were 112 µM, 119 µM and 40 µM.
On the same counts, the results for `CCCCSC[C@H](NC(=O)N(Cc1ccccc1)C(=O)c1cccc(CCC(C)C)c1)C(=O)O` [(113)] are 65 µM, 94 µM and 28 µM.
As for `CCCCSC[C@H](NC(=O)N(CCc1ccccc1)C(=O)c1cccc(CCC(C)C)c1)C(=O)O` [(114)], the IC50 was found to be 58 µM on Mcl-1, 85 µM on Bcl-xLΔ25 and 32 µM on Bcl-wΔ29.
